These results are taken from patent US7700615B2, “Cell migration inhibiting compositions and methods and compositions for treating cancer” (Avolix Pharmaceuticals, Inc., priority 2002, dated 2010).

One assay concerns normal fibroblasts. Nature of the assay: Cell migration of normal fibroblasts. The assay is classed as cell-based. The following applies: compared with control sample of untreated cells. Here is the method:
(§1) The guided cell sedimentation apparatus may be used to deposit cells onto a substrate at predetermined locations. A manifold and a substrate as described above may be stored in autoclave bags and steam autoclaved for about 1 hour to sterilize the manifold. The manifold may then be stored at about 4° C. until testing is to be performed. FIG. 3 illustrates a top schematic view of substrate 14. Prior to deposition, the surface of substrate 14 onto which the cells will be deposited is treated according to the experiment to be performed. For example, about 20 μl of a surface coating may be added to each well and incubated for about 1 hour at about 37° C. Just prior to deposition of the cells, Teflon-defined wells 24 on the substrate are hydrated in a culture media appropriate for the cells under study. Approximately 50 μl of culture media is deposited onto each well. […] A small aliquot of the culture media (i.e., about 1 μl) is aspirated from each channel of the manifold to eliminate air bubbles within the channels.
The cells are harvested from a culture according to any method known in the art. The cell concentration is adjusted to about 2000 cells/μl. An appropriate cell concentration may vary depending on the cell type. The cells are deposited into each channel in a volume of about 1 μl. The number of cells deposited onto the substrate varies depending upon the physical characteristics of the cells under study. For example, about 500 to about 3000 cells are deposited in each location. The manifold, substrate, and cells should stand undisturbed for a period of time of, for example, about 30 minutes. During the time, the cells will sediment. Sedimentation is generally defined as a process in which gravity causes heavier objects in a suspension to settle to the lowest part of the system. As used herein, sedimentation refers to the process in which gravity causes cells to settle through a standing column of culture media that fills the channels in the manifold. Forces greater than gravity should be avoided to prevent damage of the cells.
The manifold, substrate, and cells are transferred to a controlled temperature and atmosphere tissue culture incubator for several hours to overnight to allow the cells to attach to the surface of the substrate. Appropriate conditions for the incubator are about 37° C., about […] (CO2), and humidified air. The cells sediment onto a defined location at the bottom of the channel. Therefore, when the manifold is removed from the substrate, the cells are deposited as discs 26 of cells at predetermined locations on the substrate, as shown in FIG. 3. Such sedimentation of cells may further include any other steps of the methods as described by Berens. After the cells are attached and the manifold has been removed, the cells in each well may be re-fed with an appropriate solution.
(§2) Cell migration may be monitored over time by monitoring the location of individual cells over time or measuring the radius of a circle surrounding the cells over time. […] The peripheral cells are easily detected because the cells can be deposited as a confluent monolayer within a predetermined area. […] Alternatively, designations such as numbers can be assigned to individual cells such that cells may be counted or characterized within the deposited sample of cells. […]

The next assay relates to HUVEC cells. The assay can be described thus: Angiogenesis inhibition: cell migration of HUVEC cells. The following applies: compared with untreated control sample. In kind it is cell-based, Human. The procedure:
as §1
The cells are harvested from a culture according to any method known in the art. The cell concentration is adjusted to about 2000 cells/μl. An appropriate cell concentration may vary depending on the cell type. The cells are deposited into each channel in a volume of about 1 μl. The number of cells deposited onto the substrate varies depending upon the physical characteristics of the cells under study. For example, about 500 to about 3000 cells are deposited in each location. The manifold, substrate, and cells should stand undisturbed for a period of time of, for example, about 30 minutes. […]
as §2

Assay [1] deals with pancreatic cancer cell line MiaPaCa-2. Nature of the assay: Cell migration inhibition of pancreatic cancer cells. The following applies: compared with untreated control sample. The assay is classed as cell-based. Here is the method:
(§3) The guided cell sedimentation apparatus may be used to deposit cells onto a substrate at predetermined locations. A manifold and a substrate as described above may be stored in autoclave bags and steam autoclaved for about 1 hour to sterilize the manifold. The manifold may then be stored at about 4° C. until testing is to be performed. FIG. 3 illustrates a top schematic view of substrate 14. Prior to deposition, the surface of substrate 14 onto which the cells will be deposited is treated according to the experiment to be performed. For example, about 20 μl of a surface coating may be added to each well and incubated for about 1 hour at about 37° C. Just prior to deposition of the cells, Teflon-defined wells 24 on the substrate are hydrated in a culture media appropriate for the cells under study. Approximately 50 μl of culture media is deposited onto each well. […]
as §2

Assay [2] concerns lung cancer cell line MV522. Nature of the assay: Cell migration inhibition of lung cancer cells. In kind it is cell-based. Conditions: compared with untreated control sample. Here is the method:
as §3, §2

Assay [3] relates to breast cancer cell line MDA-MB-231. Nature of the assay: Cell migration rate dose response, breast cancer cells. The assay is classed as cell-based, human. The following applies: concentration of 2.00 μM. Here is the method: as §3, §2
Assay [4] deals with melanoma cancer cell line WM1791C. The assay can be described thus: Cell migration rate dose response, melanoma cancer cells. In kind it is cell-based. Conditions: concentration of 0.025 μM. The procedure: as §3, §2
Assay [5] concerns MDA-MB-231 breast cancer cells. Nature of the assay: scid mouse human breast tumor model (tumor growth, survival). In kind it is in vivo, scid mice.
Experimental: Measuring the synergy of a combination of a chemical and a chemotherapeutic agent may also be performed by evaluating the growth inhibitory effects of a chemotherapeutic agent and a cell migration inhibitor in a severe combined immunodeficient (scid) mouse human tumor model. Such measurements include screening mice for immunoglobulin (Ig) production by an enzyme-linked immunosorbent assay (ELISA). A number of mice are injected with cancer cells in saline using a subcutaneous (SC) injection. Mice with established tumors are selected and stratified according to groups including: a control group, a group treated with a chemotherapeutic agent alone, a group treated with a cell migration inhibitor alone, and one or more groups treated with various combinations of the chemotherapeutic agent and the cell migration inhibitor. The groups designated to be treated with at least the chemotherapeutic agent are injected with the chemotherapeutic agent or the chemotherapeutic agent diluent by intraperitoneal (IP, within abdominal cavity) injection on the first day of treatment. […] Tumor growth may be measured about twice a week throughout the experiment, and the tumor volume may be estimated using the following formula: [(width)^2×length]/2. […]
The scid mouse human breast tumor model was used to evaluated cancer cells of the cell line MDA-MB-231 treated with various compositions. […]
Assay [6] concerns glioma cancer cell line SF 767. Nature of the assay: Cell migration rate dose response, glioma cancer cells. In kind it is cell-based. The following applies: concentration of 2.00 μM. Here is the method: as §3, §2

Turning to `C1=C(c2ccc3c(c2)OCCO3)NN=C(Nc2ccccc2)S1` [compound 302, [5-(2,3-dihydro-benzo[1,4]dioxin-6-yl)-4H-[1,3,4]thiadiazin-2-yl]-phenyl-amine], the “cell migration rate of normal fibroblasts” value in the assay on normal fibroblasts is listed as “essentially no effect”. Besides, in the assay on HUVEC cells, the cell migration rate entry is recorded as “markedly reduced migration”.

Take `N#Cc1c(NC(=O)c2cccc(I)c2)sc2c1CCCC2` [compound 301, N-(3-cyano-4,5,6,7-tetrahydro-benzo[b]thiophen-2-yl)-3-iodo-benzamide]: in the assay on normal fibroblasts, the “cell migration rate of normal fibroblasts” value is reported as “essentially no effect”. In the assay with HUVEC cells, the cell migration rate result is reported as “markedly reduced migration”.

In the case of `COc1ccc(C2C(C(=O)c3ccc(Cl)cc3)N3c4ccccc4C=CC3C2(C#N)C#N)cc1OC` (stereo not drawn) [NS20494, 1-(4-chloro-benzoyl)-2-(3,4-dimethoxy-phenyl)-1,2-dihydro-3aH-pyrrolo[1,2-a]quinoline-3,3-dicarbonitrile], the cell migration rate entry (in assay [1]; in the assay on HUVEC cells) was “markedly reduced migration” throughout. The “cell migration rate of normal fibroblasts” value with normal fibroblasts is listed as “essentially no effect”.

On to `Cc1ccc(C(=O)O)cc1[N+](=O)[O-]` [4-methyl-3-nitro-benzoic acid], for which the figures for the cell migration rate result in assay [2], in assay [3] and in assay [4] were “markedly reduced migration”, “about 75 μm/day” and “less than 50 μM/day”, respectively. For the same compound, in the assay on normal fibroblasts, the “cell migration rate of normal fibroblasts” value is “essentially no effect”. Besides, in assay [5] (4-methyl-3-nitro-benzoic acid alone (30 mg/kg, IP qod×5)), the “% Survival after 100 days” value is given as 0%.

As for `CCCC1CCC(C2CCC(C(=O)O)CC2)CC1` (stereo not drawn) [4′-propyl-bicyclohexyl-4-carboxylic acid], the “cell migration rate of normal fibroblasts” value in the assay on normal fibroblasts is recorded as “essentially no effect”. Moreover, the cell migration rate entry in assay [6] is reported as “about 50 μm/day”.

For the compound `CC(=O)O[C@H]1C(=O)[C@@]2(C)[C@H]([C@H](OC(=O)c3ccccc3)[C@]3(O)C[C@H](OC(=O)[C@H](O)[C@@H](NC(=O)c4ccccc4)c4ccccc4)C(C)=C1C3(C)C)[C@]1(OC(C)=O)CO[C@@H]1C[C@@H]2O` [Taxol, paclitaxel, reference compound], the “% Survival after 100 days” value in assay [5] (Taxol alone (10 mg/kg, IP qod×5)) came out at 0%.
